Assays:
Assay in all cases: relative viability (nuclei count vs DMSO), 5 days (fraction); higher = more cells survive
VE-821 + Pemetrexed = compound: CS(=O)(=O)c1ccc(-c2cnc(N)c(C(=O)Nc3ccccc3)n2)cc1 [VE-821] + Nc1nc2[nH]cc(CCc3ccc(C(=O)N[C@@H](CCC(=O)O)C(=O)O)cc3)c2c(=O)[nH]1 [Pemetrexed] (partner 0.2 µM)
Outline: (§1)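 Relative viability was taken as the ratio of nuclei in treated wells to nuclei in vehicle wells. Lung cancer cell lines in 1536-well plates received compounds by pin tool one day after seeding, either one drug alone or a fixed anchor-drug dose plus five library-drug doses (not always all listed) in √10 steps. Nuclei were counted on 4× images after 5 days of treatment, and values are medians of duplicate plates.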

VE-821 + Vorinostat = compound: CS(=O)(=O)c1ccc(-c2cnc(N)c(C(=O)Nc3ccccc3)n2)cc1 [VE-821] + O=C(CCCCCCC(=O)Nc1ccccc1)NO [Vorinostat] (partner 1 µM)
Outline: as §1

Ruxolitinib + Tozasertib = compound: N#CC[C@H](C1CCCC1)n1cc(-c2ncnc3[nH]ccc23)cn1 [Ruxolitinib] + Cc1cc(Nc2cc(N3CCN(C)CC3)nc(Sc3ccc(NC(=O)C4CC4)cc3)n2)n[nH]1 [Tozasertib] (partner 0.1 µM)
Outline: as §1

Ruxolitinib + Olaparib = compound: N#CC[C@H](C1CCCC1)n1cc(-c2ncnc3[nH]ccc23)cn1 [Ruxolitinib] + O=C(c1cc(Cc2n[nH]c(=O)c3ccccc23)ccc1F)N1CCN(C(=O)C2CC2)CC1 [Olaparib] (partner 8 µM)
Outline: as §1

Row | Cell Line | relative viability (VE-821 + Pemetrexed; first compound 0.08 µM) | relative viability (VE-821 + Pemetrexed; first compound 0.253 µM) | relative viability (VE-821 + Pemetrexed; first compound 0.8 µM) | relative viability (VE-821 + Pemetrexed; first compound 2.53 µM) | relative viability (VE-821 + Pemetrexed; first compound 8 µM) | relative viability (VE-821 + Vorinostat; first compound 0.08 µM) | relative viability (VE-821 + Vorinostat; first compound 0.253 µM) | relative viability (VE-821 + Vorinostat; first compound 0.8 µM) | relative viability (VE-821 + Vorinostat; first compound 2.53 µM) | relative viability (VE-821 + Vorinostat; first compound 8 µM) | relative viability (Ruxolitinib + Tozasertib; first compound 0.08 µM) | relative viability (Ruxolitinib + Tozasertib; first compound 0.253 µM) | relative viability (Ruxolitinib + Tozasertib; first compound 0.8 µM) | relative viability (Ruxolitinib + Tozasertib; first compound 2.53 µM) | relative viability (Ruxolitinib + Tozasertib; first compound 8 µM) | relative viability (Ruxolitinib + Olaparib; first compound 0.08 µM) | relative viability (Ruxolitinib + Olaparib; first compound 0.253 µM) | relative viability (Ruxolitinib + Olaparib; first compound 0.8 µM) | relative viability (Ruxolitinib + Olaparib; first compound 2.53 µM) | relative viability (Ruxolitinib + Olaparib; first compound 8 µM)
1 | ChaGo-K-1 | 0.28 | 0.333 | 0.274 | 0.261 | 0.253 | 0.769 | 0.747 | 0.734 | 0.803 | 0.682 | 0.246 | 0.243 | 0.454 | 0.176 | 0.195 | 0.42 | 0.445 | 0.379 | 0.347 | 0.319
2 | BEN | 0.839 | 0.678 | 0.719 | 0.799 | 0.581 | 0.557 | 0.597 | 0.529 | 0.587 | 0.594 | 0.486 | 0.503 | 0.552 | 0.537 | 0.453 | 1.16 | 1.27 | 1.24 | 0.96 | 0.994
3 | NCI-H23 | 0.919 | 0.838 | 0.55 | 0.463 | 0.272 | 0.759 | 0.476 | 0.309 | 0.285 | 0.139 | 0.434 | 0.418 | 0.437 | 0.401 | 0.301 | 0.371 | 0.369 | 0.311 | 0.242 | 0.17
4 | LU99A | 0.191 | 0.156 | 0.16 | 0.125 | 0.113 | 0.515 | 0.462 | 0.471 | 0.431 | 0.299 | 0.296 | 0.26 | 0.298 | 0.303 | 0.316 | 0.272 | 0.277 | 0.268 | 0.237 | 0.224
5 | SW 1573 | 0.774 | 0.816 | 0.748 | 0.784 | 0.576 | 0.745 | 0.708 | 0.83 | 0.954 | 0.532 | 0.209 | 0.182 | 0.167 | 0.183 | 0.16 | 0.518 | 0.586 | 0.473 | 0.416 | 0.352
6 | NCI-H2009 | 1.03 | 1 | 1.02 | 0.851 | 0.732 | 0.771 | 0.668 | 0.699 | 0.76 | 0.683 | 0.781 | 0.754 | 0.853 | 0.717 | 0.578 | 0.701 | 0.712 | 0.684 | 0.575 | 0.482
7 | HCC-15 | 0.219 | 0.23 | 0.21 | 0.211 | 0.179 | 0.954 | 0.868 | 0.901 | 0.943 | 0.934 | 0.406 | 0.434 | 0.519 | 0.481 | 0.421 | 0.72 | 0.692 | 0.721 | 0.537 | 0.454
8 | EPLC-272H | 0.347 | 0.36 | 0.218 | 0.141 | 0.0907 | 0.575 | 0.378 | 0.332 | 0.428 | 0.157 | 0.25 | 0.407 | 0.241 | 0.345 | 0.264 | 0.829 | 0.922 | 0.818 | 0.544 | 0.344
9 | HCC-78 | 0.875 | 0.904 | 0.903 | 0.853 | 0.89 | 0.388 | 0.53 | 0.393 | 0.493 | 0.417 | 0.512 | 0.45 | 0.414 | 0.55 | 0.5 | 0.779 | 0.872 | 0.897 | 0.866 | 0.934
10 | LXF-289 | 0.902 | 0.928 | 0.936 | 1.01 | 0.847 | 0.78 | 0.843 | 0.827 | 0.812 | 0.786 | 0.215 | 0.165 | 0.233 | 0.134 | 0.187 | 0.994 | 1.1 | 1.13 | 1.03 | 0.924
11 | NCI-H460 | 0.0644 | 0.0622 | 0.0609 | 0.056 | 0.0393 | 1.02 | 0.619 | 0.528 | 0.111 | 0.0517 |  | 0.601 | 0.606 | 0.578 | 0.744 |  | 0.463 | 0.411 | 0.344 | 0.375
12 | NCI-H2023 | 0.24 | 0.202 | 0.17 | 0.123 | 0.0894 | 0.783 | 0.467 | 0.441 | 0.243 | 0.121 | 0.305 | 0.352 | 0.506 | 0.356 | 0.302 | 0.483 | 0.604 | 0.509 | 0.515 | 0.339
13 | SK-LU-1 | 0.971 | 0.943 | 0.917 | 0.672 | 0.4 | 0.918 | 0.687 | 0.783 | 0.496 | 0.305 | 0.363 | 0.328 | 0.412 | 0.372 | 0.338 | 0.428 | 0.456 | 0.572 | 0.381 | 0.359
14 | NCI-H1734 | 0.413 | 0.391 | 0.374 | 0.351 | 0.297 | 1.03 | 0.762 | 0.733 | 0.707 | 0.44 | 0.332 | 0.25 | 0.281 | 0.209 | 0.223 | 0.605 | 0.554 | 0.64 | 0.56 | 0.583
15 | PC-3 [JPC-3] | 1.25 | 1.03 | 1.18 | 1.13 | 0.848 | 0.815 | 0.734 | 0.858 | 0.883 | 0.664 | 0.77 | 0.894 | 0.862 | 0.824 | 0.859 |  | 1.07 | 1.13 | 1.03 | 0.922
16 | HCC-827 | 0.248 | 0.306 | 0.251 | 0.23 | 0.213 | 0.728 | 0.779 | 0.856 | 0.837 | 0.722 |  | 0.342 | 0.35 | 0.397 | 0.386 |  | 0.469 | 0.469 | 0.49 | 0.594
